Data reported in patent US10538567B2, “Compounds as peptidic trigonal GLP1/glucagon/GIP receptor agonists” (priority 2016, dated 2020).
≈ marks a conversion by molar mass, not a printed value. Numbered stars: 1 amine (or outer) side, 2 acyl side, 3 side chain; on linkers, the order of the positions; unused ones are H or OH. Square brackets hold non-standard residues; d marks the D form. Side chains are listed from the residue outwards. Peptide text beside a SMILES is read from it. * marks the point of attachment. γGlu = O=C(O)[C@H](CCC(=O)[*:2])N[*:1]; Palmitoyl = CCCCCCCCCCCCCCCC(=O)*; Aib = CC(C)(N)C(=O)O

Experiments:
[1] = Solubility assessment in solubility buffer system A; type: physicochemical; details: acetate buffer pH 4.5 with m-cresol; acetate buffer pH 4.5, 2.7 mg/ml m-cresol, target 10 mg/ml
Experimental: Prior to the solubility measurement of a peptide batch, its purity was determined through UPLC/MS.
Therefore solutions from solid samples were prepared in a buffer system with a concentration of 10 mg/mL compound based on the previously determined % purity:
Solubility buffer system A) Acetate Buffer pH 4.5, 100 mM sodium acetate trihydrate, 2.7 mg/ml m-Cresol
UPLC-UV was performed after 1 hour of gentle agitation from the supernatant, which was obtained after 15 min of centrifugation at 2500 RCF (relative centrifugal acceleration).
The solubility was determined by the comparison of the UV peak area of 2 μL-injection of a buffered sample diluted 1:10 with a standard curve of a reference peptide with known concentration. The different UV extinction coefficients of sample and reference peptide were calculated based on the different amino acid sequences and considered in the concentration calculation.
Peptide samples were prepared in solubility buffer system A and solubility was assessed as described in Methods.

[2] = test system: female diet-induced obese (DIO) C57BL/6 mice; test: Acute and chronic effects after s.c. treatment in female diet-induced obese (DIO) C57BL/6 mice; type: in vivo
Experimental: Female C57BL/6NHsd mice were ordered group housed from Envigo RMS Inc., shipped group housed and remained group housed with shipped cage mates in shoebox caging with wood chip bedding until day 38 of the predose phase. At the study start mice were between 25-26 weeks old.
Mice were housed under vivarium conditions that included a 12 h light/dark cycle (light phase 04:00 AM-4:00 PM), room temperatures between 23-26° C. and a relative humidity between 30-70%. All animals had free access to water and a high fat diet (TD97366) for 16 weeks prior to pharmacological intervention (dosing phase). Feed was replaced with fresh feed weekly until and for the last time on day 38 of the predose phase. During the subsequent dosing phase, approximately 50% of the remaining feed were removed, replaced with fresh feed, and pellets were mixed evenly once per week.
On predose day 38, obese DIO mice were assigned to treatment groups (n=8) to match mean body masses between all DIO groups. An age-matched group with ad libitum access to a rodent maintenance diet (Teklad Global Diets Rodent 2014, pelleted) was included in the study as a lean control group. In the predosing phase from day 32 through 38, all study animals were treated with vehicle (Phosphate Buffered Saline, PBS, Gibco, without CaCl2 and MgCl2) once daily (s.c. approximately 0.2 mL/mouse).
On day 37 of the predose phase, the test article was diluted with PBS to a concentration of 100 μg/mL and aliquots of this stock solution were stored at approximately ≤−60° C. Stock aliquots were thawed for weekly use and thereafter stored in a refrigerator at approximately 4° C. The injected test article solution was prepared fresh once on each dosing day by diluting stock solution with PBS to achieve the desired concentration.
Mice were treated twice daily with a s.c. injection of PBS-vehicle or the test article for 28 days. The morning dosing was initiated and completed between 06:00 and 07:30 AM and the afternoon dosing between 2:00 and 3:30 PM. On day 28 of the dosing phase only the morning dose was administered. The applied volume was 5 ml/kg and the dose was adjusted to the most recent body mass recording of each individual.
Animals had unlimited access to water and feed during the experiment. On day 1 of the dosing phase approximately 5 μL of blood were collected via tail clips at hour 0 prior to the first s.c. dose of PBS-vehicle or test article and 1, 2, 3, 4, 6, and 24 hours post-dose in non-anesthetized animals. The 24 hour blood collection was performed prior to dosing on day 2. Between the 6 and 24 hour blood sample the afternoon dose was administered. Glucose measurements were performed in whole blood and in duplicate or triplicate using Aviva glucometers.
Body mass was measured daily approximately between 06:00-07:30 AM from day 32 through 38 of the predosing phase and throughout the 28 days of the dosing phase. During the dosing phase mice were treated twice daily with either a s.c. injection of PBS-vehicle or test article.
To determine whole body fat mass Quantitative Nuclear Magnetic Resonance (QNMR) measurements were performed on predosing day 37 and on day 26 of the dosing phase. During the dosing phase mice were treated twice daily with either a s.c. injection of PBS-vehicle or test article.
Feed consumption was based on the daily assessment of the feeder weights of each cage between 06:00-07:30 AM. Each cage housed four mice and feed consumption was calculated throughout the 28 days of the dosing phase. During the dosing phase mice were treated twice daily with either a s.c. injection of PBS-vehicle or test article.
On day 28 blood was collected prior to any other inlife activities for determination of plasma insulin concentrations. Then the morning dose was administered and necropsy was performed 4 hours post-dose. For this purpose animals were anesthetized with isoflurane and blood was collected by orbital bleeding. […]

male ApoE KO mice = test: Anti-atherosclerotic activity in ApoE KO mice, 16 weeks minipump infusion; type: in vivo; details: 150 μg/kg/day
Text: The apolipoprotein E (ApoE) knockout (KO) mouse model is widely used to investigate atherosclerosis. These mice spontaneously develop atherosclerotic lesions that are morphologically similar to those observed in humans (Meir & Leitersdorf 2004, Arterioscler Thromb Vasc Biol 24: 1006-1014, Rosenfeld et al. 2000, Arterioscler Thromb Vasc Biol 20: 2587-2592).
Male ApoE KO mice (B.129P2-apoetm1Unc/J) were randomly allocated to control or treatment groups (N=15 per group); wild-type mice (C57BL6/J) received vehicle treatment and acted as a second, healthy control.
ApoE KO and wild-type mice received constant 16 weeks infusion using subcutaneous osmotic minipumps (ALZET™) filled with either vehicle (sterile acetate buffer, pH 4.5), Peptides SEQ ID NO. 6 & SEQ ID NO. 11 (150 μg/kg/day) or with Liraglutide (600 μg/kg/day). Body weight and food intake was monitored throughout the study on a weekly basis.
Blood samples for blood lipid analysis were drawn before treatment and at weeks 7 and 16 to analyze total cholesterol, low density lipoprotein (LDL) cholesterol and high density lipoprotein (HDL) cholesterol (not shown).
The aorta was dissected and aortic atherosclerotic plaque formation was measured as absolute and relative plaque area (% oilred stained area of total aortic surface area) using quantitative and automated image analysis.

Compound	solubility at 1 h [1] [µg/mL]	time until mice habituated to the feed intake suppression ([2]; DIO mice, 30 μg/kg s.c. twice-daily)	Feed consumption estimate ([2]; DIO mice, 30 μg/kg s.c. twice-daily, after dosing start)	Blood glucose profile following first treatment ([2]; fed DIO mice, day 1, 30 μg/kg s.c., 0-24 hours post-dose)	reduction of atherosclerotic plaques relative to vehicle control (male ApoE KO mice; 4 months (16 weeks) s.c. minipump) [%]	LDL-cholesterol (male ApoE KO mice; 16 weeks)
CCCCCCCCCCCCCCCC(=O)N[C@@H](CCC(=O)N[C@@H](CCC(=O)NCCCC[C@H](NC(=O)[C@H](CC(C)C)NC(=O)[C@H](CCCCN)NC(=O)[C@H](CO)NC(=O)[C@H](CC(C)C)NC(=O)[C@H](CC(=O)O)NC(=O)[C@H](CO)NC(=O)[C@@H](NC(=O)[C@H](Cc1ccccc1)NC(=O)[C@@H](NC(=O)CNC(=O)[C@H](Cc1c[nH]cn1)NC(=O)C(C)(C)NC(=O)[C@@H](N)Cc1c[nH]cn1)[C@@H](C)O)[C@@H](C)O)C(=O)N[C@@H](CCC(=O)O)C(=O)N[C@@H](CCC(=O)O)C(=O)N[C@@H](CCC(N)=O)C(=O)N[C@@H](CCCNC(=N)N)C(=O)N[C@@H](CCC(N)=O)C(=O)N[C@@H](CCCCN)C(=O)N[C@@H](CCC(=O)O)C(=O)N[C@@H](Cc1ccccc1)C(=O)N[C@H](C(=O)N[C@@H](CCC(=O)O)C(=O)N[C@@H](Cc1c[nH]c2ccccc12)C(=O)N[C@@H](CC(C)C)C(=O)N[C@@H](CCCCN)C(=O)N[C@@H](C)C(=O)NCC(=O)NCC(=O)N[C@@H](Cc1c[nH]cn1)C(=O)N1CCC[C@H]1C(=O)N[C@@H](CO)C(=O)NC(C)(C)C(=O)N[C@@H](CCCCN)C(=O)N1CCC[C@H]1C(=O)N1CCC[C@H]1C(=O)N1CCC[C@H]1C(=O)N[C@@H](CCCCN)C(N)=O)[C@@H](C)CC)C(=O)O)C(=O)O [SEQ ID NO: 6, H-Aib-H-G-T-F-T-S-D-L-S-K-L-K[gGlu-gGlu-Palm]-E-E-Q-R-Q-K-E-F-I-E-W-L-K-A-G-G-H-P-S-Aib-K-P-P-P-K-NH2]	> 9700	approximately ten	suppressed feed intake	pronounced decrease in blood glucose concentrations over 24 hours	63	marked reduction
CCCCCCCCCCCCCCCC(=O)N[C@@H](CCC(=O)N[C@@H](CCC(=O)NCCCC[C@H](NC(=O)[C@H](CC(C)C)NC(=O)[C@H](CCCCN)NC(=O)[C@H](CO)NC(=O)[C@H](CC(C)C)NC(=O)[C@H](CC(=O)O)NC(=O)[C@H](CO)NC(=O)[C@@H](NC(=O)[C@H](Cc1ccccc1)NC(=O)[C@@H](NC(=O)CNC(=O)[C@H](Cc1c[nH]cn1)NC(=O)C(C)(C)NC(=O)[C@@H](N)Cc1c[nH]cn1)[C@@H](C)O)[C@@H](C)O)C(=O)N[C@@H](CCC(=O)O)C(=O)N[C@@H](CCC(=O)O)C(=O)N[C@@H](CCC(N)=O)C(=O)N[C@@H](CCCNC(=N)N)C(=O)N[C@@H](CCC(N)=O)C(=O)N[C@@H](CCCCN)C(=O)N[C@@H](CCC(=O)O)C(=O)N[C@@H](Cc1ccccc1)C(=O)N[C@H](C(=O)N[C@@H](CCC(=O)O)C(=O)N[C@@H](Cc1c[nH]c2ccccc12)C(=O)N[C@@H](CC(C)C)C(=O)N[C@@H](CCCCN)C(=O)N[C@@H](C)C(=O)NCC(=O)NCC(=O)N1CCC[C@H]1C(=O)N1CCC[C@H]1C(=O)N[C@@H](CO)C(=O)NC(C)(C)C(=O)N[C@@H](CCCCN)C(=O)N1CCC[C@H]1C(=O)N1CCC[C@H]1C(=O)N1CCC[C@H]1C(=O)N[C@@H](CCCCN)C(N)=O)[C@@H](C)CC)C(=O)O)C(=O)O [SEQ ID NO: 8, H-Aib-H-G-T-F-T-S-D-L-S-K-L-K[gGlu-gGlu-Palm]-E-E-Q-R-Q-K-E-F-I-E-W-L-K-A-G-G-P-P-S-Aib-K-P-P-P-K-NH2]	9500 (≈ 1940 µM)	–	–	–	–	–
CCCCCCCCCCCCCCCC(=O)N[C@@H](CCC(=O)N[C@@H](CCC(=O)NCCCC[C@H](NC(=O)[C@H](CC(C)C)NC(=O)[C@H](CCCCN)NC(=O)[C@H](CO)NC(=O)[C@H](CC(C)C)NC(=O)[C@H](CC(=O)O)NC(=O)[C@H](CO)NC(=O)[C@@H](NC(=O)[C@H](Cc1ccccc1)NC(=O)[C@@H](NC(=O)CNC(=O)[C@H](Cc1c[nH]cn1)NC(=O)C(C)(C)NC(=O)[C@@H](N)Cc1c[nH]cn1)[C@@H](C)O)[C@@H](C)O)C(=O)N[C@@H](CCC(=O)O)C(=O)N[C@@H](CCC(=O)O)C(=O)N[C@@H](CCC(N)=O)C(=O)N[C@@H](CCCNC(=N)N)C(=O)N[C@@H](CCC(N)=O)C(=O)N[C@@H](CCCCN)C(=O)N[C@@H](CCC(=O)O)C(=O)N[C@@H](Cc1ccccc1)C(=O)N[C@H](C(=O)N[C@@H](CCC(=O)O)C(=O)N[C@@H](Cc1c[nH]c2ccccc12)C(=O)N[C@@H](CC(C)C)C(=O)N[C@@H](CCCCN)C(=O)N[C@@H](C)C(=O)N[C@H](C)C(=O)NCC(=O)N1CCC[C@H]1C(=O)N1CCC[C@H]1C(=O)N[C@@H](CO)C(=O)NC(C)(C)C(=O)N[C@@H](CCCCN)C(=O)N1CCC[C@H]1C(=O)N1CCC[C@H]1C(=O)N1CCC[C@H]1C(=O)N[C@@H](CCCCN)C(N)=O)[C@@H](C)CC)C(=O)O)C(=O)O [SEQ ID NO: 9, H-Aib-H-G-T-F-T-S-D-L-S-K-L-K[gGlu-gGlu-Palm]-E-E-Q-R-Q-K-E-F-I-E-W-L-K-A-dAla-G-P-P-S-Aib-K-P-P-P-K-NH2] (H-H[Aib]HGTFTSDLSKLK([γGlu-γGlu-Palmitoyl])EEQRQKEFIEWLKA[dA]GPPS[Aib]KPPPK-NH2)	> 9300	–	–	–	–	–
CCCCCCCCCCCCCCCC(=O)N[C@@H](CCC(=O)N[C@@H](CCC(=O)NCCCC[C@H](NC(=O)[C@H](CC(C)C)NC(=O)[C@H](CCCCN)NC(=O)[C@H](CO)NC(=O)[C@H](CC(C)C)NC(=O)[C@H](CC(=O)O)NC(=O)[C@H](CO)NC(=O)[C@@H](NC(=O)[C@H](Cc1ccccc1)NC(=O)[C@@H](NC(=O)CNC(=O)[C@H](Cc1c[nH]cn1)NC(=O)C(C)(C)NC(=O)[C@@H](N)Cc1c[nH]cn1)[C@@H](C)O)[C@@H](C)O)C(=O)N[C@@H](CCC(=O)O)C(=O)N[C@@H](CCC(=O)O)C(=O)N[C@@H](CCC(N)=O)C(=O)N[C@@H](CCCNC(=N)N)C(=O)N[C@@H](CCC(N)=O)C(=O)NC(C)(C)C(=O)N[C@@H](CCC(=O)O)C(=O)N[C@@H](Cc1ccccc1)C(=O)N[C@H](C(=O)N[C@@H](CCC(=O)O)C(=O)N[C@@H](Cc1c[nH]c2ccccc12)C(=O)N[C@@H](CC(C)C)C(=O)N[C@@H](CCCCN)C(=O)N[C@@H](C)C(=O)NCC(=O)NCC(=O)N1CCC[C@H]1C(=O)N1CCC[C@H]1C(=O)N[C@@H](CO)C(=O)NC(C)(C)C(=O)N[C@@H](CCCCN)C(=O)N1CCC[C@H]1C(=O)N1CCC[C@H]1C(=O)N1CCC[C@H]1C(=O)N[C@@H](CCCCN)C(N)=O)[C@@H](C)CC)C(=O)O)C(=O)O [SEQ ID NO: 10, H-Aib-H-G-T-F-T-S-D-L-S-K-L-K[gGlu-gGlu-Palm]-E-E-Q-R-Q-Aib-E-F-I-E-W-L-K-A-G-G-P-P-S-Aib-K-P-P-P-K-NH2]	> 9800	–	–	–	–	–
